This passage reports IC50 results from PMC10061512 (ACS Omega, 2023).

“And” between values parts separate entries of the source, which are not always exact repeats. Equal entries are not always repeated.

In one assay the target is hBACE-1 (Homo sapiens, UniProt P56817). Kind of assay: biochemical.
The target in a further assay is eqBChE (Equus caballus, UniProt P81908). As to the kind of experiment: BChE inhibition and enzyme kinetics, Ellman assay. Format: biochemical, equine. (Ellman's reagent forms a yellow product with free thiols.)
Sequence of eqBChE (P81908 whole entry): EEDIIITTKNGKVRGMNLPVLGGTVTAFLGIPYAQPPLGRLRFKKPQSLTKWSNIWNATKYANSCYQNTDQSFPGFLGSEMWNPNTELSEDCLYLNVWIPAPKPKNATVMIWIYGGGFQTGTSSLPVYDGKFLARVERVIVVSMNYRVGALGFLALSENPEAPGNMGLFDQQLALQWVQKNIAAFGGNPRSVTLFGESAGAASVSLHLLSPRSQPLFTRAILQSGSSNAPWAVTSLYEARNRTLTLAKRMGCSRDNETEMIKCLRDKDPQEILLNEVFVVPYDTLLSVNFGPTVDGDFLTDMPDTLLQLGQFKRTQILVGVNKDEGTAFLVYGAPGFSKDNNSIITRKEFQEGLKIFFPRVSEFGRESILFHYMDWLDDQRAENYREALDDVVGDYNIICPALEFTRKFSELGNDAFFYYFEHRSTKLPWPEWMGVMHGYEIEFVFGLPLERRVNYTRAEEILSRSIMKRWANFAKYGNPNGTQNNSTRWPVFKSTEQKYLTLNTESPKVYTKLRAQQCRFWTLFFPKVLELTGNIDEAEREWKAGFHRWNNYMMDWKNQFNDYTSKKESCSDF
The next assay concerns the target EeAChE (Electrophorus electricus, UniProt O42275). Kind of assay: AChE inhibition and enzyme kinetics, Ellman assay. Format: biochemical, electric eel. Conditions: IC50 (μM) ± SD EeAChE, Ellman assay.

Sequence of EeAChE (O42275 24-633): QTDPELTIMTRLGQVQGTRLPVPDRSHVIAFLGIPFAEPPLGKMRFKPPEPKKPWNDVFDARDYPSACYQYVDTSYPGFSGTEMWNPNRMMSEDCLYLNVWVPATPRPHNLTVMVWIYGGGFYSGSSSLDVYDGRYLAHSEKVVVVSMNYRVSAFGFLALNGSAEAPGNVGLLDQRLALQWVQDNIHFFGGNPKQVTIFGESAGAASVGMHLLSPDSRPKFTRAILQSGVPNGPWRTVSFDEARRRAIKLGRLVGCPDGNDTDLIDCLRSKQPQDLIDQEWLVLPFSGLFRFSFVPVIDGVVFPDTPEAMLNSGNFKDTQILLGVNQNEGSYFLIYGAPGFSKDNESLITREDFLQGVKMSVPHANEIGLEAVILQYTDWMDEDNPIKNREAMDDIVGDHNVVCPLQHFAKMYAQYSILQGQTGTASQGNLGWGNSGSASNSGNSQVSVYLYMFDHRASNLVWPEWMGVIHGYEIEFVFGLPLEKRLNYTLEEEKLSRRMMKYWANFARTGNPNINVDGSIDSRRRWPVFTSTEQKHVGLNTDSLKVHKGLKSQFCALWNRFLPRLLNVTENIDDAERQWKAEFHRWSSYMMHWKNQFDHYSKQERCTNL
Sequence of hBACE-1 (P56817 46-501): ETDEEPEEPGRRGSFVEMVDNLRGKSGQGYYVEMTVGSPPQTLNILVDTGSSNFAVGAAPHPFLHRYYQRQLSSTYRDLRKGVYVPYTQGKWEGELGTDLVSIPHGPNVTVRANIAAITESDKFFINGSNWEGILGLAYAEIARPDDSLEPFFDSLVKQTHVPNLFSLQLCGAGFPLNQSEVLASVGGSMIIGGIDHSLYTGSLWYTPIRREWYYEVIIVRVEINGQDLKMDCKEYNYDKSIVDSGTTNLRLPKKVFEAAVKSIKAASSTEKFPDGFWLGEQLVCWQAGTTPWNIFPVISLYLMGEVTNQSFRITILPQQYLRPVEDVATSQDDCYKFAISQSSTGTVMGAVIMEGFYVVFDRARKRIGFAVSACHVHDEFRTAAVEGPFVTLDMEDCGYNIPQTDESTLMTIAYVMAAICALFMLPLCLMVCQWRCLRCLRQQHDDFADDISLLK

One may read the IC50 as the concentration that gives 50% inhibition. The low end stands for higher potency, the high end for lower potency. As to `O=c1cc(OCc2cn(Cc3ccc(C(F)(F)F)cc3)nn2)c2ccccc2o1` [8j, 4-((1-(4-(Trifluoromethyl)benzyl)-1H-1,2,3-triazol-4-yl)methoxy)-2H-chromen-2-one], the values for the IC50 against hBACE-1, at eqBChE and at EeAChE were 19.5 ± 0.66 µM, 209 ± 2.11 µM and 23.3 ± 2.86 µM, respectively.
Taken in the same sequence, the figures for `O=c1cc(OCc2cn(Cc3ccc(OC(F)(F)F)cc3)nn2)c2ccccc2o1` [8l, 4-((1-(4-(Trifluoromethoxy)benzyl)-1H-1,2,3-triazol-4-yl)methoxy)-2H-chromen-2-one] were 132.9 ± 1.08 µM, 158 ± 1.98 µM and 45.4 ± 1.4 µM.
Regarding `COc1cc(Cn2cc(COc3cc(=O)oc4ccccc34)nn2)cc(OC)c1` [8o, 4-((1-(3,5-Dimethoxybenzyl)-1H-1,2,3-triazol-4-yl)methoxy)-2H-chromen-2-one], the concentration for half-maximal inhibition (IC50) is 9.79 ± 1.36 µM at hBACE-1, 3.3 ± 0.01 µM against eqBChE and 2.76 ± 0.04 µM against EeAChE.
For `O=c1cc(OCc2cn(Cc3ccccc3OC(F)(F)F)nn2)c2ccccc2o1` [8k, 4-((1-(2-(Trifluoromethoxy)benzyl)-1H-1,2,3-triazol-4-yl)methoxy)-2H-chromen-2-one] the same measures were 18 ± 1.59 µM, 9.95 ± 0.89 µM and 9.13 ± 0.73 µM.
With `O=c1cc(OCc2cn(Cc3ccccc3Cl)nn2)c2ccccc2o1` [8b, 4-((1-(2-Chlorobenzyl)-1H-1,2,3-triazol-4-yl)methoxy)-2H-chromen-2-one], the IC50 against hBACE-1 was 186.6 ± 1.21 µM; against eqBChE, 42.2 ± 0.78 µM; on EeAChE it was 68.7 ± 0.71 µM.
Take `COc1cccc(Cn2cc(COc3cc4oc(=O)cc(C)c4cc3OCc3cn(Cc4cccc(OC)c4)nn3)nn2)c1` [13a, 6,7-Bis((1-(3-methoxybenzyl)-1H-1,2,3-triazol-4-yl)methoxy)-4-methyl-2H-chromen-2-one]: the IC50 was 129 ± 1.49 µM at hBACE-1, 51.7 ± 1.42 µM against eqBChE and 130.7 ± 0.45 µM on EeAChE.
Taken in the same sequence, the figures for `O=c1cc(OCc2cn(Cc3ccc(F)cc3)nn2)c2ccccc2o1` [8g, 4-((1-(4-Fluorobenzyl)-1H-1,2,3-triazol-4-yl)methoxy)-2H-chromen-2-one] were 24.2 ± 1.98 µM, 249 ± 3.1 µM and 194 ± 2.19 µM.
As to `C[n+]1c2ccccc2cc2[n-]c3ccccc3c21` [cryptolepine, reference compound], the IC50 on eqBChE came to 0.61 ± 0.3 µM; against EeAChE, 0.33 ± 0.2 µM.
With `COc1cc(Cn2cc(COc3cc4oc(=O)cc(C)c4cc3OCc3cn(Cc4cc(OC)cc(OC)c4)nn3)nn2)cc(OC)c1` [13b, 6,7-Bis((1-(3,5-dimethoxybenzyl)-1H-1,2,3-triazol-4-yl)methoxy)-4-methyl-2H-chromen-2-one], the figures for the IC50 against hBACE-1, on eqBChE and at EeAChE were 115 ± 3.86 µM, 4.7 ± 0.67 µM and 168 ± 6.7 µM, respectively.
Taken in the same sequence, the figures for `CC(=O)c1c(OCc2cn(Cc3ccccc3C(F)(F)F)nn2)ccc2ccc(=O)oc12` [10c, 8-Acetyl-7-((1-(2-(trifluoromethyl)benzyl)-1H-1,2,3-triazol-4-yl)methoxy)-2H-chromen-2-one] were 139 ± 1.47 µM, 44.6 ± 1.84 µM and 173 ± 1.89 µM.
Take `Cc1ccccc1Cn1cc(COc2cc(=O)oc3ccccc23)nn1` [8m, 4-((1-(2-Methylbenzyl)-1H-1,2,3-triazol-4-yl)methoxy)-2H-chromen-2-one]: the results for the IC50 against hBACE-1, against eqBChE and against EeAChE were 162 ± 1.85 µM, 172 ± 1.98 µM and 210.7 ± 1.83 µM, respectively.
Taken in the same sequence, the figures for `COc1cccc(Cn2cc(COc3ccc4ccc(=O)oc4c3C(C)=O)nn2)c1` [10a, 8-Acetyl-7-((1-(3-methoxybenzyl)-1H-1,2,3-triazol-4-yl)methoxy)-2H-chromen-2-one] were 119 ± 2.49 µM, 7.4 ± 0.94 µM and 8.36 ± 1.29 µM.
`COc1cccc(Cn2cc(COc3cc4oc(=O)cc(C)c4cc3OC)nn2)c1` [16a, 6-Methoxy-7-((1-(3-methoxybenzyl)-1H-1,2,3-triazol-4-yl)methoxy)-4-methyl-2H-chromen-2-one]: the IC50 against hBACE-1 was determined as 138.4 ± 1.02 µM; at eqBChE it was 95.8 ± 1.12 µM; on EeAChE it was 164 ± 1.84 µM.
Taken in the same sequence, the figures for `Cc1cc(=O)oc2cc(OCc3cn(Cc4ccccc4C(F)(F)F)nn3)c(OCc3cn(Cc4ccccc4C(F)(F)F)nn3)cc12` [13c, 4-Methyl-6,7-bis((1-(2-(trifluoromethyl)benzyl)-1H-1,2,3-triazol-4-yl)methoxy)-2H-chromen-2-one] were 139.4 ± 1 µM, 82.5 ± 1.41 µM and 154.7 ± 1.42 µM.
For `O=c1cc(OCc2cn(Cc3cccc(Cl)c3)nn2)c2ccccc2o1` [8c, 4-((1-(3-Chlorobenzyl)-1H-1,2,3-triazol-4-yl)methoxy)-2H-chromen-2-one] the same measures were 24.8 ± 1.49 µM, 61.9 ± 3.66 µM and 62.6 ± 2.4 µM.
Taken in the same sequence, the figures for `COc1cc2c(C)cc(=O)oc2cc1OCc1cn(Cc2ccccc2OC(F)(F)F)nn1` [16d, 6-Methoxy-4-methyl-7-((1-(2-(trifluoromethoxy)benzyl)-1H-1,2,3-triazol-4-yl)methoxy)-2H-chromen-2-one] were 167.6 ± 1.4 µM, 141 ± 0.6 µM and 167 ± 2.45 µM.
Take `O=c1ccc2ccc(OCc3cn(Cc4ccccc4OC(F)(F)F)nn3)cc2o1` [19d, 7-((1-(2-(Trifluoromethoxy)benzyl)-1H-1,2,3-triazol-4-yl)methoxy)-2H-chromen-2-one]: the results for the IC50 on hBACE-1, at eqBChE and on EeAChE were 172.8 ± 0.66 µM, 97.2 ± 1.29 µM and 52.54 ± 0.4 µM, respectively.
For `O=c1cc(OCc2cn(Cc3ccccc3F)nn2)c2ccccc2o1` [8e, 4-((1-(2-Fluorobenzyl)-1H-1,2,3-triazol-4-yl)methoxy)-2H-chromen-2-one], the IC50 at hBACE-1 amounted to 111.2 ± 0.63 µM; against eqBChE it was 62.3 ± 1.2 µM; against EeAChE it was 89.2 ± 1.88 µM.
Turning to `COc1cccc(Cn2cc(COc3ccc4ccc(=O)oc4c3)nn2)c1` [19a, 7-((1-(3-Methoxybenzyl)-1H-1,2,3-triazol-4-yl)methoxy)-2H-chromen-2-one], the IC50 on hBACE-1 was 126 ± 3.92 µM; at eqBChE, 2.8 ± 0.22 µM; at EeAChE it was 3.6 µM and 3.62 µM.
As for `COc1cc2c(C)cc(=O)oc2cc1OCc1cn(Cc2ccccc2C(F)(F)F)nn1` [16c, 6-Methoxy-4-methyl-7-((1-(2-(trifluoromethyl)benzyl)-1H-1,2,3-triazol-4-yl)methoxy)-2H-chromen-2-one], the figures for the IC50 at hBACE-1, against eqBChE and against EeAChE were 156.1 ± 1.42 µM, 57.5 ± 1.42 µM and 141.7 ± 0.89 µM, respectively.
For `O=c1cc(OCc2cn(Cc3ccccc3C(F)(F)F)nn2)c2ccccc2o1` [8i, 4-((1-(2-(Trifluoromethyl)benzyl)-1H-1,2,3-triazol-4-yl)methoxy)-2H-chromen-2-one], the IC50 stood at 10.2 ± 0.79 µM at hBACE-1, 7.04 ± 0.77 µM against eqBChE and 4.83 ± 0.11 µM on EeAChE.
On to `Cc1cc(=O)oc2cc(OCc3cn(Cc4ccccc4OC(F)(F)F)nn3)c(OCc3cn(Cc4ccccc4OC(F)(F)F)nn3)cc12` [13d, 4-Methyl-6,7-bis((1-(2-(trifluoromethoxy)benzyl)-1H-1,2,3-triazol-4-yl)methoxy)-2H-chromen-2-one], for which the IC50 against hBACE-1 worked out at 20.7 ± 0.93 µM; on EeAChE it was 176 ± 10.2 µM.
With `COc1cc2c(C)cc(=O)oc2cc1O` [compound 14, 7-Hydroxy-6-methoxy-4-methyl-2H-chromen-2-one], the IC50 worked out at 91.1 ± 2.41 µM against hBACE-1, 146 ± 4.91 µM against eqBChE and 89.1 ± 3.51 µM on EeAChE.
The molecule `O=c1ccc2ccc(O)cc2o1` [compound 17, 7-hydroxycoumarin] gave an IC50 at hBACE-1 of 175 ± 4.37 µM.
